According to PubChem BioAssay AID248 (DTP/NCI, 2004):
Several values for one entry are separate records, joined by “and”; a condition that tells them apart may be missing. Equal values may be shown once. Inconclusive results and toxic doses are left out. Cut-off read from the data, not from the text of the source: active = T/C of 150% or more; inactive = T/C below 125%.

Test system: L1210 leukemia ip in BDF1 mice, survival T/C
Assay: NCI In Vivo Anticancer Drug Screen. Data for tumor model L1210 Leukemia (intraperitoneal) in B6D2F1 (BDF1) mice
Conditions: endpoint: mean survival time, higher = longer survival
In short: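 Ratio derived from survival: compound-dosed mice over vehicle-dosed mice, all bearing a transplantable tumor.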

[1] = dose: 100.0 mg/kg/injection, schedule: Q01DX009 (ip), vehicle: Klucel (hydroxypropylcellulose) (HPC)
[2] = dose: 200.0 mg/kg/injection, schedule: Q01DX009 (ip), vehicle: Klucel (hydroxypropylcellulose) (HPC)
[3] = dose: 100.0 mg/kg/injection, schedule: Q01DX009 (ip), vehicle: saline with Tween-80
[4] = dose: 100.0 mg/kg/injection, schedule: Q04DX002 (ip), vehicle: saline
[5] = dose: 100.0 mg/kg/injection, schedule: Q04DX003 (ip), vehicle: saline
[6] = dose: 200.0 mg/kg/injection, schedule: Q01DX009 (ip), vehicle: saline with Tween-80
[7] = dose: 200.0 mg/kg/injection, schedule: Q04DX003 (ip), vehicle: saline
[8] = dose: 400.0 mg/kg/injection, schedule: Q04DX003 (ip), vehicle: saline
[9] = dose: 100.0 mg/kg/injection, schedule: Q01DX009 (ip), vehicle: saline

Measured: T/C

O=C1C=C(C2OC(CO)C(O)C2O)C(=O)N1 (configuration not stated)
inactive: dose: 6.0 mg/kg/injection, schedule: Q01DX015 (ip), vehicle: saline 113 % of control | dose: 6.0 mg/kg/injection, schedule: Q01DX Z (ip), vehicle: saline 115 % of control | dose: 6.2 mg/kg/injection, schedule: Q01DX001 (ip), vehicle: saline 97 % of control | dose: 9.0 mg/kg/injection, schedule: Q01DX001 (ip), vehicle: saline 101 % of control | dose: 9.0 mg/kg/injection, schedule: Q01DX015 (ip), vehicle: saline 113 % of control | dose: 9.0 mg/kg/injection, schedule: Q01DX Z (ip), vehicle: saline 122 % of control | dose: 12.0 mg/kg/injection, schedule: Q01DX001 (ip), vehicle: saline 100 % of control | dose: 12.5 mg/kg/injection, schedule: Q01DX001 (ip), vehicle: saline 109 % of control | dose: 15.0 mg/kg/injection, schedule: Q01DX001 (ip), vehicle: saline 106 % of control | dose: 15.0 mg/kg/injection, schedule: Q01DX015 (ip), vehicle: saline 122 % of control | dose: 15.0 mg/kg/injection, schedule: Q01DX Z (ip), vehicle: saline 110 % of control

CCCOCC(O)CNCCN (configuration not stated)
inactive: [1] 98 % of control | [2] 92 % of control

CC(=O)Nc1c(Cl)cc(Cl)cc1Cl
inactive: dose: 100.0 mg/kg/injection, schedule: Q01DX001 (ip), vehicle: saline with Tween-80 109 % of control | dose: 200.0 mg/kg/injection, schedule: Q01DX001 (ip), vehicle: saline with Tween-80 93 % of control | dose: 400.0 mg/kg/injection, schedule: Q01DX001 (ip), vehicle: saline with Tween-80 95 % of control

C/C(CC(C)C)=N\NC(=O)Nc1ccc(Cl)c(Cl)c1
inactive: [3] 100 % of control and 112 % of control | [4] 94 % of control and 106 % of control | [5] 92 % of control | [6] 101 % of control and 112 % of control | dose: 200.0 mg/kg/injection, schedule: Q04DX002 (ip), vehicle: saline 93 % of control and 105 % of control | [7] 95 % of control | dose: 400.0 mg/kg/injection, schedule: Q01DX009 (ip), vehicle: saline with Tween-80 101 % of control and 106 % of control | dose: 400.0 mg/kg/injection, schedule: Q04DX002 (ip), vehicle: saline 95 % of control and 105 % of control | [8] 113 % of control

CNC(=S)C(=S)NC
inactive: dose: 12.5 mg/kg/injection, schedule: Q04DX003 (ip), vehicle: saline with Tween-80 94 % of control | dose: 25.0 mg/kg/injection, schedule: Q04DX003 (ip), vehicle: saline with Tween-80 95 % of control

CCN(CC)CCOc1ccc(/C(=C(\Cl)c2ccccc2)c2ccccc2)cc1
inactive: dose: 6.25 mg/kg/injection, schedule: Q04DX002 (ip), vehicle: saline 118 % of control | dose: 12.5 mg/kg/injection, schedule: Q04DX002 (ip), vehicle: saline 118 % of control | dose: 25.0 mg/kg/injection, schedule: Q04DX002 (ip), vehicle: saline 124 % of control | dose: 50.0 mg/kg/injection, schedule: Q04DX002 (ip), vehicle: saline 121 % of control and 124 % of control | [4] 96 % of control

O=C1OC2(c3ccccc31)c1ccccc1-c1ccccc12
inactive: dose: 100.0 mg/kg/injection, schedule: Q04DX003 (ip), vehicle: saline with Tween-80 97 % of control | dose: 200.0 mg/kg/injection, schedule: Q04DX003 (ip), vehicle: saline with Tween-80 89 % of control

Cn1c(=O)oc2ccccc2c1=O
inactive: [5] 98 % of control | [7] 97 % of control | [8] 109 % of control

CC(=O)OCCC(CCOC(C)=O)=C1N=C(c2ccccc2)OC1=O
inactive: [9] 97 % of control | dose: 100.0 mg/kg/injection, schedule: Q04DX003 (ip), vehicle: other 101 % of control | dose: 200.0 mg/kg/injection, schedule: Q01DX009 (ip), vehicle: saline 105 % of control | dose: 200.0 mg/kg/injection, schedule: Q04DX003 (ip), vehicle: other 104 % of control | dose: 400.0 mg/kg/injection, schedule: Q01DX009 (ip), vehicle: saline 92 % of control | dose: 400.0 mg/kg/injection, schedule: Q04DX003 (ip), vehicle: other 101 % of control

O=C(C[n+]1ccccc1)N/N=C/c1ccc(Cl)c(Cl)c1
inactive: dose: 25.0 mg/kg/injection, schedule: Q01DX009 (ip), vehicle: saline 94 % of control | dose: 50.0 mg/kg/injection, schedule: Q01DX009 (ip), vehicle: saline 102 % of control | [9] 102 % of control

COC(=O)c1ccccc1NC(=O)NCCBr
inactive: [1] 95 % of control | dose: 100.0 mg/kg/injection, schedule: Q04DX003 (ip), vehicle: Klucel (hydroxypropylcellulose) (HPC) 103 % of control | [2] 93 % of control | dose: 200.0 mg/kg/injection, schedule: Q04DX003 (ip), vehicle: Klucel (hydroxypropylcellulose) (HPC) 97 % of control | dose: 400.0 mg/kg/injection, schedule: Q01DX009 (ip), vehicle: Klucel (hydroxypropylcellulose) (HPC) 93 % of control | dose: 400.0 mg/kg/injection, schedule: Q04DX003 (ip), vehicle: Klucel (hydroxypropylcellulose) (HPC) 110 % of control

C1CC2CC1CC1C3CC4CCC(C4)C3OC21 (configuration not stated)
inactive: dose: 50.0 mg/kg/injection, schedule: Q04DX002 (ip), vehicle: saline with Tween-80 98 % of control | dose: 100.0 mg/kg/injection, schedule: Q04DX002 (ip), vehicle: saline with Tween-80 102 % of control | dose: 200.0 mg/kg/injection, schedule: Q04DX002 (ip), vehicle: saline with Tween-80 91 % of control | dose: 400.0 mg/kg/injection, schedule: Q04DX002 (ip), vehicle: saline with Tween-80 95 % of control

Nc1nc(N)c2nnn(C3CC(O)C(CO)C3)c2n1 (configuration not stated)
inactive: dose: 50.0 mg/kg/injection, schedule: Q01DX009 (ip), vehicle: saline with Tween-80 89 % of control | [3] 96 % of control | [6] 92 % of control

CC(=O)OC1CCC2(C)C(CCC3C4CC(N5CC5)C(C(C)=O)C4(C)CC(=O)C32)C1 (configuration not stated)
inactive: dose: 100.0 mg/kg/injection, schedule: Q01DX001 (sc), vehicle: steriod suspending solution 99 % of control | dose: 200.0 mg/kg/injection, schedule: Q01DX001 (sc), vehicle: steriod suspending solution 100 % of control | dose: 400.0 mg/kg/injection, schedule: Q01DX001 (sc), vehicle: steriod suspending solution 94 % of control
